These results are taken from PMC5602553 (Biochemistry, 2017).

The target of the experiment is T1, KpCld (Klebsiella pneumoniae, UniProt A6TJ49).
T1 sequence (A6TJ49 1-187): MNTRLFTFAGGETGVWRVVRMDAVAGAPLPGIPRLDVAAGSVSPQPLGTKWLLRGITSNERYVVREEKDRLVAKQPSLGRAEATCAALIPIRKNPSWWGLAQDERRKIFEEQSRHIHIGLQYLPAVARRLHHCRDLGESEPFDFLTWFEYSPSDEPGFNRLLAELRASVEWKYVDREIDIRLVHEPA
The note with it: 100 mM phosphate pH 6.0; ferric enzyme; single binding site.

pKd: −log10 of the molar value.

`Br` [Br^−] showed a pKd of 1.91.
